Tests used:
[1] = molecular target: T1, S. aureus SrtAΔN24 (Staphylococcus aureus, UniProt Q2FV99); experiment: biochemical; type: biochemical; settings: for Hill Coefficient: fit of fractional activity vs inhibitor concentration
[2] = molecular target: T1, S. aureus SrtAΔN24; experiment: HPLC-based SrtA activity assay at fixed inhibitor concentrations; type: biochemical; settings: read-out: percent inhibition (%I)
[3] = molecular target: SrtA Cys184 (Staphylococcus aureus, UniProt Q2FV99); experiment: ESI-MS and MS/MS of trypsin-digested inhibitor-treated SrtA; type: binding; settings: SrtA incubated with compound, SDS-PAGE, trypsin digest

For C=CS(=O)(=O)[C@H]1C[C@@](CCC(=O)OC)(C(=O)OC)N[C@H]1c1ccc(OC)c(OC)c1 (relative stereo) [Compound 2k, Methyl (2S*,4S*,5S*)-5-(3,4-dimethoxyphenyl)-4-ethenesulfonyl-2-(2-methoxycarbonylethyl)pyrrolidine-2-carboxylate], the IC50 [1] was greater than 5 mM.
With C=CS(=O)(=O)[C@H]1C[C@@](CCC(=O)OC)(C(=O)OC)N[C@H]1c1cccnc1 (relative stereo) [Compound 2l, Methyl (2S*,4S*,5S*)-4-ethenesulfonyl-2-(2-methoxycarbonylethyl)-5-pyridin-3-yl-pyrrolidine-2-carboxylate] the “Hill Coefficient” value [1] was 1.40 ± 0.33.
For C=CS(=O)(=O)[C@H]1C[C@]2(C(=O)OC)CCC(=O)N2[C@H]1c1ccccc1 (relative stereo) [Compound 3j, Methyl (2S*,3S*,7aS*)-2-ethenesulfonyl-5-oxo-3-phenyltetrahydropyrrolizine-7a-carboxylate], the “Hill Coefficient” value [1] was 1.90 ± 0.23.
For C=CS(=O)(=O)[C@H]1C[C@]2(C(=O)OC)CCC(=O)N2[C@H]1c1ccc(OC)c(OC)c1 (relative stereo) [Compound 3k, Methyl (2S*,3S*,7aS*)-3-(3,4-dimethoxyphenyl)-2-ethenesulfonyl-5-oxotetrahydropyrrolizine-7a-carboxylate], the “Hill Coefficient” value [1] was 1.39 ± 0.28.
For C=CS(=O)(=O)[C@H]1C[C@]2(C(=O)OC)CCC(=O)N2[C@H]1c1cccnc1 (relative stereo) [Compound 3l, Methyl (2S*,3S*,7aS*)-2-ethenesulfonyl-5-oxo-3-pyridin-3-yl-tetrahydropyrrolizine-7a-carboxylate], the “Hill Coefficient” value [1] was 1.42 ± 0.14.
Cc1cn(C[C@@H]2C[C@H](C#N)[C@H](c3ccccc3)N2C)c(=O)[nH]c1=O (relative stereo) [Compound 9, (2R*,3S*,5S*)-1-Methyl-5-(5-methyl-2,4-dioxo-3,4-dihydro-2H-pyrimidin-1-ylmethyl)-2-phenylpyrrolidine-3-carbonitrile] showed an inhibition at 1000 µM [2] of 6%.
For C=CS(=O)(=O)C1CC(C(=O)OC)NC1c1cccc(F)c1 (stereo not shown) [Compound 2c], the “covalent modification of SrtA” value [3] was “formation of a covalent adduct with Cys184”.

Reference: article PMC2663005 (Bioorganic & medicinal chemistry, 2009)
